Converted amounts (≈) assume the structure as drawn.
Molecular target: T1, Peptide deformylase, mitochondrial (Homo sapiens, UniProt Q9HBH1)
T1 sequence (Q9HBH1 whole entry): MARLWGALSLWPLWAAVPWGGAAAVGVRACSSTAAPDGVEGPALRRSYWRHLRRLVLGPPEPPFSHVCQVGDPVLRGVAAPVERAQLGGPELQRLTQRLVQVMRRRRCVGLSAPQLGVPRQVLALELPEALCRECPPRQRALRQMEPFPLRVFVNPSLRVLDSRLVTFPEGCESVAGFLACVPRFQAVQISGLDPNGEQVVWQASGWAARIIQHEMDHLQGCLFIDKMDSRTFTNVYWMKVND
Test: Inhibition of human peptide deformylase after 1 hr by fluorescence polarization based competition assay

SMILES	IC50 [µM]
COc1ccc(C(=O)c2coc3c2C(=O)C(=O)C(Cl)=C3Cl)cc1	15

System: Streptococcus pneumoniae
Test: Antibacterial activity against Streptococcus pneumoniae ATCC 6301
Type: functional

SMILES	MIC [µg/mL]
C[C@@H](O)[C@H]1C(=O)N2C(C(=O)O)=C(SCCNC=N)C[C@H]12 [IMIPENEM ANHYDROUS]	≤ 0.12
COc1ccc(C(=O)c2coc3c2C(=O)C(=O)C(Cl)=C3Cl)cc1	16 (≈ 45.6 µM)

Molecular target: T2, Peptide deformylase, mitochondrial (Homo sapiens) (UniProt Q9HBH1)
T2 sequence (whole entry): T1 sequence (Q9HBH1 whole entry)
Test: Inhibition of human peptide deformylase at 100 uM after 1 hr by fluorescence polarization based competition assay

SMILES	inhibition [%]
COc1ccc(C(=O)c2coc3c2C(=O)C(=O)C(Cl)=C3Cl)cc1	88

System: Staphylococcus aureus
Test: Antibacterial activity against Staphylococcus aureus ATCC 29213
Type: functional

SMILES	MIC [µg/mL]
C[C@@H](O)[C@H]1C(=O)N2C(C(=O)O)=C(SCCNC=N)C[C@H]12 [IMIPENEM ANHYDROUS]	≤ 0.12
COc1ccc(C(=O)c2coc3c2C(=O)C(=O)C(Cl)=C3Cl)cc1	> 64

System: Cutibacterium acnes
Test: Antibacterial activity against Propionibacterium acnes ATCC 11827
Type: functional

SMILES	MIC [µg/mL]
C[C@@H](O)[C@H]1C(=O)N2C(C(=O)O)=C(SCCNC=N)C[C@H]12 [IMIPENEM ANHYDROUS]	≤ 0.12
COc1ccc(C(=O)c2coc3c2C(=O)C(=O)C(Cl)=C3Cl)cc1	> 64

Molecular target: T3, Interstitial collagenase (Homo sapiens) (UniProt P03956)
T3 sequence (whole entry): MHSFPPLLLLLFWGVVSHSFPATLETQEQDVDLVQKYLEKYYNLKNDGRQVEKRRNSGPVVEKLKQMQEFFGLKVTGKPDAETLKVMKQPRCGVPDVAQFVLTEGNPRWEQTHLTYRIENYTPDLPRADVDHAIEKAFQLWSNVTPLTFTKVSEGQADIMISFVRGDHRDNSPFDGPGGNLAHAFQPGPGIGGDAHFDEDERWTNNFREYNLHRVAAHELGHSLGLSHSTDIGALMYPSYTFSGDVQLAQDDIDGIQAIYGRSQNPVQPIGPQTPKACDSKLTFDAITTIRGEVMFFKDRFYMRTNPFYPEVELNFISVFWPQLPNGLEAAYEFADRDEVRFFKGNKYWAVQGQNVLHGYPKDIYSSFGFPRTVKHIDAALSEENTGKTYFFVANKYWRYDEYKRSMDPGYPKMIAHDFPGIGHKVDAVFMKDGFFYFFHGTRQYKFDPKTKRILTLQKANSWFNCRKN
Test: Inhibition of human recombinant MMP1 at 100 uM after 1 hr by fluorescence polarization based competition assay

SMILES	inhibition [%]
COc1ccc(C(=O)c2coc3c2C(=O)C(=O)C(Cl)=C3Cl)cc1	0

System: not listed separately
Test: Cytotoxicity against human CWR22 cells
Type: functional, cell-based

SMILES	IC50 [µM]
COc1ccc(C(=O)c2coc3c2C(=O)C(=O)C(Cl)=C3Cl)cc1	50

System: HEK293
Test: Cytotoxicity against human HEK293 cells
Type: cell-based

SMILES	IC50 [µM]
COc1ccc(C(=O)c2coc3c2C(=O)C(=O)C(Cl)=C3Cl)cc1	30

System: Staphylococcus epidermidis
Test: Antibacterial activity against Staphylococcus epidermidis ATCC 12228
Type: functional

SMILES	MIC [µg/mL]
C[C@@H](O)[C@H]1C(=O)N2C(C(=O)O)=C(SCCNC=N)C[C@H]12 [IMIPENEM ANHYDROUS]	≤ 0.12
COc1ccc(C(=O)c2coc3c2C(=O)C(=O)C(Cl)=C3Cl)cc1	> 64

System: Enterobacter cloacae
Test: Antibacterial activity against Enterobacter cloacae ATCC 13047
Type: functional

SMILES	MIC [µg/mL]
C[C@@H](O)[C@H]1C(=O)N2C(C(=O)O)=C(SCCNC=N)C[C@H]12 [IMIPENEM ANHYDROUS]	1 (≈ 3.34 µM)
COc1ccc(C(=O)c2coc3c2C(=O)C(=O)C(Cl)=C3Cl)cc1	> 64

System: Bacteroides fragilis
Test: Antibacterial activity against Bacteroides fragilis ATCC 25285
Type: functional

SMILES	MIC [µg/mL]
C[C@@H](O)[C@H]1C(=O)N2C(C(=O)O)=C(SCCNC=N)C[C@H]12 [IMIPENEM ANHYDROUS]	≤ 0.12
COc1ccc(C(=O)c2coc3c2C(=O)C(=O)C(Cl)=C3Cl)cc1	> 64

System: Citrobacter freundii
Test: Antibacterial activity against Citrobacter freundii ATCC 8090
Type: functional

SMILES	MIC [µg/mL]
C[C@@H](O)[C@H]1C(=O)N2C(C(=O)O)=C(SCCNC=N)C[C@H]12 [IMIPENEM ANHYDROUS]	1 (≈ 3.34 µM)
COc1ccc(C(=O)c2coc3c2C(=O)C(=O)C(Cl)=C3Cl)cc1	> 64

System: Haemophilus influenzae
Test: Antibacterial activity against Haemophilus influenzae ATCC 49766
Type: functional

SMILES	MIC [µg/mL]
C[C@@H](O)[C@H]1C(=O)N2C(C(=O)O)=C(SCCNC=N)C[C@H]12 [IMIPENEM ANHYDROUS]	1 (≈ 3.34 µM)
COc1ccc(C(=O)c2coc3c2C(=O)C(=O)C(Cl)=C3Cl)cc1	> 64

System: HL-60
Test: Cytotoxicity against human HL60 cells
Type: functional, cell-based

SMILES	IC50 [µM]
COc1ccc(C(=O)c2coc3c2C(=O)C(=O)C(Cl)=C3Cl)cc1	10

System: Y79
Test: Cytotoxicity against human Y79 cells
Type: functional, cell-based

SMILES	IC50 [µM]
COc1ccc(C(=O)c2coc3c2C(=O)C(=O)C(Cl)=C3Cl)cc1	66

System: Jurkat
Test: Cytotoxicity against human Jurkat cells
Type: functional, cell-based

SMILES	IC50 [µM]
COc1ccc(C(=O)c2coc3c2C(=O)C(=O)C(Cl)=C3Cl)cc1	6.1

System: Streptococcus pyogenes
Test: Antibacterial activity against Streptococcus pyogenes ATCC 19615
Type: functional

SMILES	MIC [µg/mL]
C[C@@H](O)[C@H]1C(=O)N2C(C(=O)O)=C(SCCNC=N)C[C@H]12 [IMIPENEM ANHYDROUS]	≤ 0.12
COc1ccc(C(=O)c2coc3c2C(=O)C(=O)C(Cl)=C3Cl)cc1	> 64

System: Candida albicans
Test: Antifungal activity against Candida albicans ATCC 90028
Type: functional

SMILES	MIC [µg/mL]
C[C@@H](O)[C@H]1C(=O)N2C(C(=O)O)=C(SCCNC=N)C[C@H]12 [IMIPENEM ANHYDROUS]	> 64
COc1ccc(C(=O)c2coc3c2C(=O)C(=O)C(Cl)=C3Cl)cc1	> 64

System: Enterococcus faecium
Test: Antibacterial activity against Enterococcus faecium ATCC 19434
Type: functional

SMILES	MIC [µg/mL]
C[C@@H](O)[C@H]1C(=O)N2C(C(=O)O)=C(SCCNC=N)C[C@H]12 [IMIPENEM ANHYDROUS]	2 (≈ 6.68 µM)
COc1ccc(C(=O)c2coc3c2C(=O)C(=O)C(Cl)=C3Cl)cc1	> 64

System: Escherichia coli
Test: Antibacterial activity against Escherichia coli ATCC 25922
Type: functional

SMILES	MIC [µg/mL]
C[C@@H](O)[C@H]1C(=O)N2C(C(=O)O)=C(SCCNC=N)C[C@H]12 [IMIPENEM ANHYDROUS]	≤ 0.12
COc1ccc(C(=O)c2coc3c2C(=O)C(=O)C(Cl)=C3Cl)cc1	> 64

Molecular target: T4, Peptide deformylase (Escherichia coli) (UniProt Q9JN24)
T4 sequence (whole entry): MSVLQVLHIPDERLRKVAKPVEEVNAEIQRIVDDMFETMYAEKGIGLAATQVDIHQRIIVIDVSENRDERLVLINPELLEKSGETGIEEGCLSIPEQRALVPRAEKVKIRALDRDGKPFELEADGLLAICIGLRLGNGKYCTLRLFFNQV
Test: Inhibition of Escherichia coli peptide deformylase at 100 uM after 1 hr by fluorescence polarization based competition assay

SMILES	inhibition [%]
COc1ccc(C(=O)c2coc3c2C(=O)C(=O)C(Cl)=C3Cl)cc1	1

System: not listed separately
Test: Cytotoxicity against human ALL3 cells
Type: functional, cell-based

SMILES	IC50 [µM]
COc1ccc(C(=O)c2coc3c2C(=O)C(=O)C(Cl)=C3Cl)cc1	27

Molecular target: T5, Peptide deformylase (Escherichia coli, UniProt Q9JN24)
T5 sequence (Q9JN24 whole entry): T4 sequence (whole entry)
Test: Inhibition of Escherichia coli peptide deformylase after 1 hr by fluorescence polarization based competition assay

SMILES	IC50 [µM]
COc1ccc(C(=O)c2coc3c2C(=O)C(=O)C(Cl)=C3Cl)cc1	> 100

System: not listed separately
Test: Cytotoxicity against human Meso47 cells
Type: functional, cell-based

SMILES	IC50 [µM]
COc1ccc(C(=O)c2coc3c2C(=O)C(=O)C(Cl)=C3Cl)cc1	100

System: MOLT-3
Test: Cytotoxicity against human MOLT3 cells
Type: functional, cell-based

SMILES	IC50 [µM]
COc1ccc(C(=O)c2coc3c2C(=O)C(=O)C(Cl)=C3Cl)cc1	4.1

Molecular target: T6, Aminopeptidase N (Sus scrofa) (UniProt P15145)
T6 sequence (whole entry): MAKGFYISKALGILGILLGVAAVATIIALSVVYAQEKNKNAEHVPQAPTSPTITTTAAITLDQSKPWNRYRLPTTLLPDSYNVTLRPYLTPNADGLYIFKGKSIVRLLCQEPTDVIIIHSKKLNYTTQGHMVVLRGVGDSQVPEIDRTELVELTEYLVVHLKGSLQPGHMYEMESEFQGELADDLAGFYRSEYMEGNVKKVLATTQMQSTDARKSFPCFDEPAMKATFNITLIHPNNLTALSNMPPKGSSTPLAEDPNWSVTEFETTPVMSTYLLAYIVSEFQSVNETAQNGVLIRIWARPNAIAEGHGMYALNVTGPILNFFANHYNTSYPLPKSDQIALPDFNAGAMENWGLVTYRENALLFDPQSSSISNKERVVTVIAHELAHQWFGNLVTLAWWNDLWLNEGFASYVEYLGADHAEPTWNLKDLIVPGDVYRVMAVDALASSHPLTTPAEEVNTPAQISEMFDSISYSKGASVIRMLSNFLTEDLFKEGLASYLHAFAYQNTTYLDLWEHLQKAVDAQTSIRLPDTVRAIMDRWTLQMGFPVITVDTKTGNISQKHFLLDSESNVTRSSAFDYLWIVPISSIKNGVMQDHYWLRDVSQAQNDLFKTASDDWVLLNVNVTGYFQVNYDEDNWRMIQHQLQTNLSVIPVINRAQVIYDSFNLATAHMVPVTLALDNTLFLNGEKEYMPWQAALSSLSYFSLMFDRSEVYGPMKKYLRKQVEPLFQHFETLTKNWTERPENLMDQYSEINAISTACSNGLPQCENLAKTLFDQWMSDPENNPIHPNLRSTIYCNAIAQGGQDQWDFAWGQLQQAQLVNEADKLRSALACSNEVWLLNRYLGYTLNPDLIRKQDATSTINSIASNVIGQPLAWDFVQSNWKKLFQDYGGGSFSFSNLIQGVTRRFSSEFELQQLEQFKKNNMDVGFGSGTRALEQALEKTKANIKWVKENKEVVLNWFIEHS
Test: Inhibition of porcine kidney microsomal aminopeptidase N at 100 uM after 1 hr by fluorescence polarization based competition assay

SMILES	inhibition [%]
COc1ccc(C(=O)c2coc3c2C(=O)C(=O)C(Cl)=C3Cl)cc1	50

System: HL-60
Test: Cytotoxicity against human vincristine-resistant HL60 cells
Type: functional, cell-based

SMILES	IC50 [µM]
COc1ccc(C(=O)c2coc3c2C(=O)C(=O)C(Cl)=C3Cl)cc1	43

System: Enterococcus faecalis
Test: Antibacterial activity against Enterococcus faecalis ATCC 29212
Type: functional

SMILES	MIC [µg/mL]
C[C@@H](O)[C@H]1C(=O)N2C(C(=O)O)=C(SCCNC=N)C[C@H]12 [IMIPENEM ANHYDROUS]	0.5 (≈ 1.67 µM)
COc1ccc(C(=O)c2coc3c2C(=O)C(=O)C(Cl)=C3Cl)cc1	> 64

— ChEMBL document CHEMBL1806384, “Identification of benzofuran-4,5-diones as novel and selective non-hydroxamic acid, non-peptidomimetic based inhibitors of human peptide deformylase” (Bioorg Med Chem Lett, 2011)
